# Values quoted from earlier work as cited in patent US5179093A, “Quinoline-diones” (Schering Corporation, priority 1991, dated 1993).
# Columns and labels:
# HSV-1 = conditions: U.S. Pat. No. 4,757,088; cited from earlier work
# HSV-2 = conditions: U.S. Pat. No. 4,757,088; cited from earlier work
# HSV = conditions: according to Haines et al.; cited from earlier work
# herpes virus = conditions: U.S. Pat. No. 4,757,088; cited from earlier work
structure (smiles),measurement,setting,value
"CCN(CC)CC(=O)Nc1c(C)cccc1C [lidocaine, 2-(diethylamino)-N-(2,6-dimethylphenyl)acetamide]",antiviral activity in cell culture against HSV-1,HSV-1,antiviral agent in cell culture against HSV-1 and HSV-2
same,antiviral activity in cell culture against HSV-2,HSV-2,antiviral agent in cell culture against HSV-1 and HSV-2
same,treatment of HSV oral and genital lesions in humans,HSV,particularly effective
same,ability to treat herpes virus infections of mammals,herpes virus,able to treat herpes virus infections of mammals
